# Data taken from patent US4439619A, “Fluorinated pentene diamine derivatives” (Merrell Toraude et Compagnie, priority 1980, dated 1984).
# How the values were obtained:
# [1] = tested on: Ornithine decarboxylase (ODC); test: ODC inhibitory activity in vivo (ODC activity in ventral prostate and thymus of rats); design: species or system rats (Sprague-Dawley)
# Protocol: Male rats of the Sprague-Dawley strain (200-220 g body weight), purchased from Charles River, are given food and water ad libitum under a constant 12 hr light--12 hr dark lighting schedule. Drugs are injected intraperitoneally (dissolved in 0.9% saline) or are given by gavage (dissolved in water). Rats given saline or water serve as control. Five to six hours after drug administration, the animals are killed by decapitation and the ventral prostrate and thymus are excised rapidly and immediately processed. The tissues are homogenized with three volumes of 30 mM sodium phosphate buffer (pH 7.1) containing 0.1 mM EDTA, 0.25 M sucrose, 0.1 mM pyridoxal phosphate and 5 mM dithiothreitol. Ornithine decarboxylase activities are determined on a 1000 g supernatant of prostate homogenate and on a whole thymus homogenate, essentially as described by Ono et al. (Biochem. Biophys. Acta, 284, 285 (1972)).
# When tested according to the above-described procedure, representative compounds of Formula I gave the results shown in Table II below and in which the following abbreviations are used: […]
# [2] = molecular target: T1, Ornithine decarboxylase (ODC) (Rattus norvegicus, UniProt P09057); test: Inhibition of ornithine decarboxylase (ODC) in vitro (partially purified ODC from rat liver, 14CO2 assay, Kitz and Wilson); format: biochemical, rats; design: Half-life (t1/2): dose or concentration left out as unconfirmed; details: for τ50 (half-life, at infinite concentration of inhibitor) / Ki: 37°, Kitz and Wilson; for Ki: time-dependent inhibition, read-out: KI (apparent dissociation constant)
# T1 construct: prepared from the livers of rats which have been injected with thioacetamide; from tissue; host or cells: rat liver (thioacetamide-injected rats), purified about ten fold by acid treatment at pH 4.6
# T1 sequence (P09057 1-461): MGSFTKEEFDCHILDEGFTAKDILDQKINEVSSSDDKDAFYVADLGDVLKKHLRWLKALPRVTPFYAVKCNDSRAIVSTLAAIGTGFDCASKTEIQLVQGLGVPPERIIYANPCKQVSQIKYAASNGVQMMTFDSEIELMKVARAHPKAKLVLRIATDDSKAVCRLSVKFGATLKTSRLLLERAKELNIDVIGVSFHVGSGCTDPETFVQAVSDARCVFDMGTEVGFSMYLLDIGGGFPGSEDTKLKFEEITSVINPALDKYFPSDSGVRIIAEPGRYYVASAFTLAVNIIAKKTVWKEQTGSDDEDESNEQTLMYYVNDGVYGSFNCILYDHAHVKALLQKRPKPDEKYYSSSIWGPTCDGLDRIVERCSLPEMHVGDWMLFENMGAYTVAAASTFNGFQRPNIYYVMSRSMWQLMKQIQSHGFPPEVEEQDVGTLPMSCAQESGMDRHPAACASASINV
# Protocol: Ornithine decarboxylase (ODC) is prepared from the livers of rats which have been injected with thioacetamide (150 mg/kg of body weight) 18 hrs before sacrifice, and is purified about ten fold by acid treatment at pH 4.6 as described by Ono et al. (Biochem. Biophys. Acta 284, 285 (1972)). The stock solution of ODC is comprised of protein (16 mg/mL), sodium phosphate buffer (30 mM, pH 7.1), dithiothreitol (5 mM) and pyridoxal phosphate (0.1 mM). The specific activity of this stock solution is 0.12 nmol of CO2 /min per mg of protein. For a typical experiment 320 μl of this stock solution are mixed at time 0 with 80 μl of a solution of the inhibitor in water and incubated at 37°. At different times 50 μl aliquots are transferred into a 1-mL assay medium containing sodium phosphate (30 mM, pH 7.1), dithiothreitol (5 mM), pyridoxal phosphate (0.1 mM), L-ornithine ([…]), and DL-[1-^14 C] ornithine ([…], 58 Ci/mol, Amersham) in a closed vessel in which a filter paper moistered with 50 μl hyamine hydroxide (1 M) is fitted. The reaction is allowed to proceed for 60 min at 37° C. and then terminated by addition of 0.5 ml of 40% trichloroacetic acid. After an additional 30 min the CO2 absorbed on the filter paper is counted in a standard scintillation cocktail. KI (apparent dissociation constant) and .tau.50 (half-life, at infinite concentration of inhibitor are calculated according to the method of Kitz and Wilson (J. Biol. Chem., 237, 3245 (1962)).
# When tested according to the above-described procedure, representative compounds of Formula I gave the results shown in Table III below. The same abbreviations are used as in Table II and DFMDP is α-difluoromethyl-trans-β-dehydroputrescine.
# [3] = Contragestational activity in mice (method of J. Fozard); format: in vivo; details: 80 mg/kg S.C. every six hours on the 8th day of gestation
# Protocol: The compounds of Formula I wherein Rc is --COR3 are also capable of interrupting embryogenesis in female mammals when administered systematically. Thus, the compounds are useful as contragestational agents in female mammals when it is desired to terminate early pregnancy. […] In general, an effective daily dose of the compounds of Formula I, wherein Rc is --COR3, for terminating pregnancy in warm-blooded mammals is from 10 mg/kg to 1 g/kg, preferably 10 to 100 mg/kg, administered after fertilisation during the period between Standard Stages 8-16 of gestation as defined by E. Wischi (See Tables 26-27, pages 82-92, Biology Data Book, Altman and Dittmer, Editors, Published by the Federation of American Societies for Experimental Biology, Washington, D.C., 1964). The period of treatment will vary with the species. In humans, the period of treatment will extend from the 6th-7th day of gestation of the 27th day.
# ODC = ODC activity in the EMT6 tumor of treated mice; format: in vivo; details: all treatments (2% and 0.2% in water, 200 mg/kg i.p.)
# L 1210 leukemia = format: in vivo, mice
# Protocol: (§1) When tested in mice against L 1210 leukemia and EMT6 solid tumors, -fluoromethyl-trans-dehydroputrescine (MFMDP) gave the following results:
# When injected i.p. (twice a day from day 1) at a dose of 50 mg/kg it increased by 20% the mean survival time of the mice.
# in vivo = format: in vivo, mice; details: 2% in drinking water or 200 mg/kg i.p. twice a day, after 10 days
# Protocol: When given in drinking water (2%) or injected i.p. (200 mg/kg twice a day) MFMDP induced the following toxic effects observed after 10 days of treatment: […]
# EMT6 solid tumors = test: Anti-neoplastic effect in mice inoculated with EMT6 solid sarcoma; format: in vivo
# From the text: as §1
# 2% MFMDP in water as sole drinking fluid starting 4 days after inoculation of the cells, inhibited by 60% to 70% the growth of the tumor at day 17. When given at 0.2% in water, it inhibited by 25% tumor growth.
# [4] = Acute i.p. toxicity (LD50) in mice; details: mouse, in vivo, ip, acute i.p. injection
# From the text: The LD50 is acute i.p. injection was between 1 and 3 g/kg in mice.
# [5] = tested on: carcinoma of the bladder, esophagus, lung, pancreas, colon, kidney, breast and prostate, oat cell carcinoma, adenocarcinoma, lymphoma, hepatoma, melanoma …; details: intravenously once or twice a week; 65 treated patients; cited from earlier work
structure (smiles),measurement,setting,value
"NC/C=C/C(N)(C(=O)O)C(F)F (centres unmarked) [DFMDO, 2-Difluoromethyl-2,5-diamino-3-(E)-penten-1-oic acid]","ODC activity, ventral prostate",[1]; 50 mg/kg gavage,119 % CONTROL
same,Half-life (t1/2),[2],10.0 min
same,"τ50 (half-life, at infinite concentration of inhibitor)",[2],2.5 min
same,Ki,[2],30 µM
"NC/C=C/C(N)C(F)F (centres unmarked) [DFMDP, 2,2-Difluoro-2,5-diamino-3-(E)-pentene]",Half-life (t1/2),[2],5 min
same,"τ50 (half-life, at infinite concentration of inhibitor)",[2],0.7 min
same,Ki,[2],60 µM
"NC/C=C/C(N)(CF)C(=O)O (centres unmarked) [MFMDO, 2-Fluoromethyl-2,5-diamino-3-(E)-penten-1-oic acid]","ODC activity, ventral prostate",[1]; 50 mg/kg I.P.,18 % CONTROL
same,"ODC activity, ventral prostate",[1]; 50 mg/kg gavage,36 % CONTROL
same,inhibition of gestation (number of viable feti per gravid female vs controls),[3],inhibited gestation
same,Half-life (t1/2),[2],3.1 min
same,"τ50 (half-life, at infinite concentration of inhibitor)",[2],2.7 min
same,Ki,[2],2.8 µM
"NC/C=C/C(N)CF (centres unmarked) [MFMDP, 1-Fluoro-2,5-diamino-3-(E)-pentene]",ODC activity in the tumor,ODC,markedly inhibited in all cases
same,increase of mean survival time,L 1210 leukemia; 50 mg/kg i.p. twice a day from day 1,20%
same,prolongation of survival,L 1210 leukemia; 0.2% in water as sole drinking fluid from day 1 after inoculation,did not prolong the survival of the mice
same,increased survival,L 1210 leukemia; 200 mg/kg i.p.,no increased survival could be observed
same,toxicity,"L 1210 leukemia; 200 mg/kg i.p., L 1210 mice",toxic
same,decrease in body weight,in vivo,25%
same,decrease in water intake,in vivo,30-40%
same,drop in blood leukocytes,in vivo,50%
same,mortality at 240 h,"in vivo; mouse, in vivo, read-out: animals dead",15%
same,"ODC activity, thymus",[1]; 25 mg/kg I.P.,24 % CONTROL
same,"ODC activity, ventral prostate",[1]; 25 mg/kg gavage,12 % CONTROL
same,inhibition of tumor growth,EMT6 solid tumors; 0.2% in water,25%
same,inhibition of tumor growth,"EMT6 solid tumors; 200 mg/kg i.p. twice a day starting 4 days after inoculation, day 13",50%
same,LD50,[4],1000 to 3000 mg/kg
same,Half-life (t1/2),[2],0.9 min
same,"τ50 (half-life, at infinite concentration of inhibitor)",[2],0.2 min
same,Ki,[2],42 µM
"CC(C=NNC(=N)N)=NNC(=N)N [MGBG, methylglyoxal bis(guanylhydrazone)]",complete disappearance of the disease,[5],complete disappearance of the disease in two of the 65 treated patients
same,regression of the tumor,[5],measurable regression of the tumor in many of the patients treated
